For the experiment, the target named is pHipA (Escherichia coli, UniProt P23874). The experiment is described as follows: ITC. To be noted: no binding.
Sequence of pHipA (P23874 whole entry, looked up): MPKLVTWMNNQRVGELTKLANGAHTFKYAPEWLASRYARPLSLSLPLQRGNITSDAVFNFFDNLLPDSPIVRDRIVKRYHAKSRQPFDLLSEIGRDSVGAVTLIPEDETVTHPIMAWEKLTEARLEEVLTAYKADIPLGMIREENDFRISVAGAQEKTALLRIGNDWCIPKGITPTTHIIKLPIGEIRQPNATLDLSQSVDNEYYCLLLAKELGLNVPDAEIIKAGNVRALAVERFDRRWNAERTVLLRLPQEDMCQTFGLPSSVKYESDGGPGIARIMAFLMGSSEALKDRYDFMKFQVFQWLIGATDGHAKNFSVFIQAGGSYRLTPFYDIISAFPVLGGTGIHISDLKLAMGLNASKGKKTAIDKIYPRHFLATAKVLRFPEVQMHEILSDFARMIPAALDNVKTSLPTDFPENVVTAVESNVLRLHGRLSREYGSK

Take `Nc1ncnc2c1ncn2[C@@H]1O[C@H](COP(=O)(O)OP(=O)(O)NP(=O)(O)O)[C@@H](O)[C@H]1O` [AMPPNP]: the ITC result is on record as “revealed no interaction between ATP or the nonhydrolyzable ATP analogue, AMPPNP”.

The values are drawn from paper PMC4831868 (Cell reports, 2012).
